The target in experiment [1] is T1, OsSRT1 (FL) (Oryza sativa, UniProt B8ARK7).
T1 construct: gene SRT1; full length 1-483, cloned from rice leaf cDNA into pET30a, His-tagged, monomer by SEC
T1 sequence (B8ARK7 1-483): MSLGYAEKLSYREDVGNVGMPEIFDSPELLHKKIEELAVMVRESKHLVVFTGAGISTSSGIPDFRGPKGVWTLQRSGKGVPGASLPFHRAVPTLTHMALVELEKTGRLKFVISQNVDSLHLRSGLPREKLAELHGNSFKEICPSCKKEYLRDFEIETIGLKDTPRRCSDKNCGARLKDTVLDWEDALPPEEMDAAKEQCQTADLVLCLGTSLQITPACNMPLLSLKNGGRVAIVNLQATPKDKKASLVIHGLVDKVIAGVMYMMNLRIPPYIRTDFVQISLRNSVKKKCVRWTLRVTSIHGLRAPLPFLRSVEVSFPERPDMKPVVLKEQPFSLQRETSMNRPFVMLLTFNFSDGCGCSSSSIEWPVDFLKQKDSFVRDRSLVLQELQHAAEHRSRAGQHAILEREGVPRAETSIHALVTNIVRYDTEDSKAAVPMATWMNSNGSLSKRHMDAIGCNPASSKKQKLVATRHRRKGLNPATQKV
The experiment in a line: dot blot deacetylation assay, H3K9Ac. The experiment is classed as biochemical.

The target in experiment [2] is T1, OsSRT1 (FL). The experiment in a line: dot blot deacetylation assay, H3K9Ac. The experiment is classed as biochemical. This is another data set of the same source.

Read-outs that look alike come from different tables or passages of the source.

Take `CCCC(=O)O` [sodium butyrate]: half-maximal inhibition in experiment [1] (IC50) was put at 98 ± 15 µM. Same read-out and setting: to `NC(=O)c1cccnc1` [NAM] belongs 147 ± 21 µM. Consider `Nc1ncnc2c1ncn2[C@@H]1O[C@H](COP(=O)(O)OP(=O)(O)OC[C@H]2OC(O)[C@H](O)[C@@H]2O)[C@@H](O)[C@H]1O` (stereo partly shown) [ADP-ribose], for which, in experiment [1] (H3K9Ac deacetylation, product inhibition), inhibition was half-maximal at 25 ± 2 µM (IC50). Regarding `Oc1ccc(/C=C/c2cc(O)cc(O)c2)cc1` [resveratrol], in experiment [2], the EC50 (as a rule, the concentration at which the effect is half-maximal) came to 236 ± 12 µM.

The values above are taken from article doi:10.1101/2021.11.05.467508v1, “Biochemical analysis of deacetylase activity of rice sirtuin OsSRT1, a class IV member in plants” (biorxiv, 2021).
